Data as given in patent US9399626B2, “2-thiopyrimidinones” (Pfizer Inc., priority 2011, dated 2016).
Counter-ions that a name gives are not always drawn.

target: T1, MPO (purified from human polynuclear leukocytes) (Homo sapiens, UniProt P05164); test: MPO Amplex Red Activity Assay; assay type: biochemical; settings: Table 1, 2 μM H2O2, pH 7.4
T1 construct: purified from human polynuclear leukocytes; purchased Calbiochem/EMD Biosciences; host or cells: human polynuclear leukocytes (natural source)
In short: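 Human leukocyte MPO […] oxidises 30 μM Amplex Red with 2 μM H2O2 in 50 mM NaPi pH 7.4, 150 mM NaCl, 1 mM DTPA, 2% DMSO. Resorufin fluorescence (ex 530/em 580 nm) read every 20 s, minus catalase background. kobs from the first 600 s, corrected for auto-inactivation, fit versus [I] for kinact/KI.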

T1 sequence (P05164 279-745 limits assumed): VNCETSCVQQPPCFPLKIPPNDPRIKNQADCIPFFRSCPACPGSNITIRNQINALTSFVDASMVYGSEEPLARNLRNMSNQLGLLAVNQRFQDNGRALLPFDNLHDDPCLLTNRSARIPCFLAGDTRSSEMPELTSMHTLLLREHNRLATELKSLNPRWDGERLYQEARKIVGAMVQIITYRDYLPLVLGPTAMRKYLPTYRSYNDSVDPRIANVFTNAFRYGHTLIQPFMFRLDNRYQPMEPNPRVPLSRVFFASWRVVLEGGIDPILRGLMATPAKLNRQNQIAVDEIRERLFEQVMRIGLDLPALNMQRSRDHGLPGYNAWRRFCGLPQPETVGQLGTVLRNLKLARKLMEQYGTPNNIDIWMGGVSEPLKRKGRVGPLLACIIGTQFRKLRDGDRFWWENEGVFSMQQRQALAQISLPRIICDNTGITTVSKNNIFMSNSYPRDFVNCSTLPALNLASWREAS
T1 sequence (P05164 165-273 limits assumed): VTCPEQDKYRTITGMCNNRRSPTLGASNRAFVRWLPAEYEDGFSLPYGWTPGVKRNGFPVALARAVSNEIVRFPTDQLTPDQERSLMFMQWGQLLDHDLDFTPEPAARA

MPO kinact/Ki | Compound
3570 1/s per M | COCCn1c(-c2ccc(OC)c(OC)c2OC)cc(=O)[nH]c1=S [Example 343, 1-(2-methoxyethyl)-2-thioxo-6-(2,3,4-trimethoxyphenyl)-2,3-dihydropyrimidin-4(1H)-one]
5240 1/s per M | COCCn1c(-c2ccc(F)cc2OC)cc(=O)[nH]c1=S [Example 318, 6-(4-fluoro-2-methoxyphenyl)-1-(2-methoxyethyl)-2-thioxo-2,3-dihydropyrimidin-4(1H)-one]
2890 1/s per M | CCOC(=O)Cn1c(-c2cc(OC)c(OC)cc2OC)cc(=O)[nH]c1=S [Example 139, ethyl[4-oxo-2-thioxo-6-(2,4,5-trimethoxyphenyl)-3,4-dihydropyrimidin-1(2H)-yl]acetate]
1570 1/s per M | COCCn1c(-c2ccncc2OC)cc(=O)[nH]c1=S [Example 296, 1-(2-methoxyethyl)-6-(3-methoxypyridin-4-yl)-2-thioxo-2,3-dihydropyrimidin-4(1H)-one]
7640 1/s per M | CSc1ccccc1-c1cc(=O)[nH]c(=S)n1CCO [Example 24, 1-(2-hydroxyethyl)-6-[2-(methylthio)phenyl]-2-thioxo-2,3-dihydropyrimidin-4(1H)-one]
1970 1/s per M | COc1ccc(-c2cc(=O)[nH]c(=S)n2CCC(C)(C)N)c(OC)c1 [Example 219, 1-(3-amino-3-methylbutyl)-6-(2,4-dimethoxyphenyl)-2-thioxo-2,3-dihydropyrimidin-4(1H)-one hydrochloride]
2910 1/s per M | COc1ccccc1-c1cc(=O)[nH]c(=S)n1CCOC(C)C [Example 173, 1-(2-isopropoxyethyl)-6-(2-methoxyphenyl)-2-thioxo-2,3-dihydropyrimidin-4(1H)-one]
13700 1/s per M | COc1ccc(F)cc1-c1cc(=O)[nH]c(=S)n1CCO [Example 28, 6-(5-fluoro-2-methoxyphenyl)-1-(2-hydroxyethyl)-2-thioxo-2,3-dihydropyrimidin-4(1H)-one]
3450 1/s per M | COc1ccc(-c2cc(=O)[nH]c(=S)n2C[C@H](O)CO)c(OC)c1 [Example 203, 1-[(2S)-2,3-dihydroxypropyl]-6-(2,4-dimethoxyphenyl)-2-thioxo-2,3-dihydropyrimidin-4(1H)-one]
4380 1/s per M | COCCn1c(-c2ccc3ccccc3c2OC)cc(=O)[nH]c1=S [Example 115, 1-(2-methoxyethyl)-6-(1-methoxy-2-naphthyl)-2-thioxo-2,3-dihydropyrimidin-4(1H)-one]
1160 1/s per M | CNC(=O)c1cccc(-c2cc(=O)[nH]c(=S)n2CCOC)c1 [Example 325, 3-[3-(2-methoxyethyl)-6-oxo-2-thieno-1,2,3,6-tetrahydropyrimidin-4-yl]-N-methylbenzamide]
11300 1/s per M | COCCn1c(-c2csc3ccccc23)cc(=O)[nH]c1=S [Example 324, 6-(1-benzothien-3-yl)-1-(2-methoxyethyl)-2-thioxo-2,3-dihydropyrimidin-4(1H)-one]
3470 1/s per M | COCCn1c(-c2c(F)cccc2OC)cc(=O)[nH]c1=S [Example 60, 6-(2-fluoro-6-methoxyphenyl)-1-(2-methoxyethyl)-2-thioxo-2,3-dihydropyrimidin-4(1H)-one]
68 1/s per M | COc1ccc(-c2cc(=O)[nH]c(=S)n2CCN2CCOCC2)c(OC)c1 [Example 251, 6-(2,4-dimethoxyphenyl)-1-(2-morpholin-4-ylethyl)-2-thioxo-2,3-dihydropyrimidin-4(1H)-one]
5810 1/s per M | COc1ccc(F)cc1-c1cc(=O)[nH]c(=S)n1CCNC(=O)CN [Example 127, N-{2-[6-(5-fluoro-2-methoxyphenyl)-4-oxo-2-thioxo-3,4-dihydropyrimidin-1(2H)-yl]ethyl} glycinamide hydrochloride]
3760 1/s per M | NC(=O)Cn1c(-c2ccccc2OC(F)(F)F)cc(=O)[nH]c1=S [Example 208, 2-{4-oxo-2-thioxo-6-[2-(trifluoromethoxy)phenyl]-3,4-dihydropyrimidin-1(2H)-yl}acetamide]
5490 1/s per M | COc1ccc(-c2cc(=O)[nH]c(=S)n2CCCCCO)c(OC)c1 [Example 225, 6-(2,4-dimethoxyphenyl)-1-(5-hydroxypentyl)-2-thioxo-2,3-dihydropyrimidin-4(1H)-one]
15800 1/s per M | COc1cc(F)ccc1-c1cc(=O)[nH]c(=S)n1CCO [Example 27, 6-(4-fluoro-2-methoxyphenyl)-1-(2-hydroxyethyl)-2-thioxo-2,3-dihydropyrimidin-4(1H)-one]
1180 1/s per M | COCCn1c(-c2cccs2)cc(=O)[nH]c1=S [Example 282, 1-(2-methoxyethyl)-6-(2-thienyl)-2-thioxo-2,3-dihydropyrimidin-4(1H)-one]
10300 1/s per M | COc1cc(OC)c(-c2cc(=O)[nH]c(=S)n2CCN)cc1Cl [Example 111, 1-(2-aminoethyl)-6-(5-chloro-2,4-dimethoxyphenyl)-2-thioxo-2,3-dihydropyrimidin-4(1H)-one hydrochloride]
1330 1/s per M | COCCn1c(-c2ncccc2OC)cc(=O)[nH]c1=S [Example 20, 1-(2-methoxyethyl)-6-(3-methoxypyridin-2-yl)-2-thioxo-2,3-dihydropyrimidin-4(1H)-one]
9730 1/s per M | COCCn1c(-c2cccc3ncsc23)cc(=O)[nH]c1=S [Example 78, 6-(1,3-benzothiazol-7-yl)-1-(2-methoxyethyl)-2-thioxo-2,3-dihydropyrimidin-4(1H)-one]
3000 1/s per M | COc1ccc(-c2cc(=O)[nH]c(=S)n2CCNC(N)=O)c(OC)c1 [Example 223, 1-{2-[6-(2,4-dimethoxyphenyl)-4-oxo-2-thioxo-3,4-dihydropyrimidin-1(2H)-yl]ethyl}urea]
2390 1/s per M | COCCn1c(-c2cnc3ccccc3c2)cc(=O)[nH]c1=S [Example 320, 1-(2-methoxyethyl)-6-quinolin-3-yl-2-thioxo-2,3-dihydropyrimidin-4(1H)-one]
762 1/s per M | COCCn1c(-c2ccnc(OC)c2)cc(=O)[nH]c1=S [Example 297, 1-(2-methoxyethyl)-6-(2-methoxypyridin-4-yl)-2-thioxo-2,3-dihydropyrimidin-4(1H)-one]
8950 1/s per M | O=c1cc(-c2cccc3ccccc23)n(CCO)c(=S)[nH]1 [Example 162, 1-(2-hydroxyethyl)-6-(1-naphthyl)-2-thioxo-2,3-dihydropyrimidin-4(1H)-one]
8970 1/s per M | COc1ccc(-c2cc(=O)[nH]c(=S)n2CCOC(=O)CN)c(OC)c1 [Example 244, 2-[6-(2,4-dimethoxyphenyl)-4-oxo-2-thioxo-3,4-dihydropyrimidin-1(2H)-yl]ethyl glycinate tosylate]
6630 1/s per M | COc1cc(-c2cc(=O)[nH]c(=S)n2CCN)c(OC)cc1C [Example 84, 1-(2-aminoethyl)-6-(2,5-dimethoxy-4-methylphenyl)-2-thioxo-2,3-dihydropyrimidin-4(1H)-one hydrochloride]
3160 1/s per M | COCCn1c(-c2ccc3c(c2)OCO3)cc(=O)[nH]c1=S [Example 309, 6-(1,3-benzodioxol-5-yl)-1-(2-methoxyethyl)-2-thioxo-2,3-dihydropyrimidin-4(1H)-one]
1280 1/s per M | COc1cc(OC)c(-c2cc(=O)[nH]c(=S)n2CC(N)=O)cc1F [Example 107, 2-[6-(5-fluoro-2,4-dimethoxyphenyl)-4-oxo-2-thioxo-3,4-dihydropyrimidin-1(2H)-yl]acetamide]

same assay, conditions: Table 1A, 2 μM H2O2, pH 7.4

MPO kinact/Ki | Compound
1680 1/s per M | NC(=O)Cn1c(-c2ccc(F)cc2OCCO)cc(=O)[nH]c1=S [Example 414, 2-{6-[4-fluoro-2-(2-hydroxyethoxy)phenyl]-4-oxo-2-thioxo-3,4-dihydropyrimidin-1(2H)-yl}acetamide]
4810 1/s per M | COc1ccc(-c2cc(=O)[nH]c(=S)n2CCCN)c(OCCO)c1 [Example 402, 1-(3-aminopropyl)-6-[2-(2-hydroxyethoxy)-4-methoxyphenyl]-2-thioxo-2,3-dihydropyrimidin-4(1H)-one]
4060 1/s per M | COc1ccc(-c2cc(=O)[nH]c(=S)n2CC(=O)N[C@H](C)CN)c(OC)c1 [Example 401, N-[(2R)-1-aminopropan-2-yl]-2-[6-(2,4-dimethoxyphenyl)-4-oxo-2-thioxo-3,4-dihydropyrimidin-1(2H)-yl]acetamide]
7870 1/s per M | COc1ccc(Cl)cc1-c1cc(=O)[nH]c(=S)n1CC(=O)NC(=N)N [Example 376, N-carbamidoyl-2-[6-(5-chloro-2-methoxyphenyl)-4-oxo-2-thioxo-3,4-dihydropyrimidin-1(2H)-yl]acetamide]
17200 1/s per M | COc1ccc(F)cc1-c1cc(=O)[nH]c(=S)n1CCCNC(=N)NC#N [Example 447, 1-cyano-3-{3-[6-(5-fluoro-2-methoxyphenyl)-4-oxo-2-thioxo-3,4-dihydropyrimidin-1(2H)-yl]propyl}guanidine]
9200 1/s per M | COc1ccc(-c2cc(=O)[nH]c(=S)n2CC(=O)N[C@H]2CC[C@@H]2N)c(OC)c1 [Example 439, N-[(1S,2S)-2-aminocyclobutyl]-2-[6-(2,4-dimethoxyphenyl)-4-oxo-2-thioxo-3,4-dihydropyrimidin-1(2H)-yl]acetamide]
4410 1/s per M | NC(=O)Cn1c(-c2cc(Cl)ccc2OCCO)cc(=O)[nH]c1=S [Example 426, 2-{6-[5-chloro-2-(2-hydroxyethoxy)phenyl]-4-oxo-2-thioxo-3,4-dihydropyrimidin-1(2H)-yl}acetamide]
